Laboratory results: ChEMBL document CHEMBL1157517, “Hepatitis C virus NS3-4A serine protease inhibitors: SAR of new P1 derivatives of SCH 503034” (Bioorg Med Chem Lett, 2008)

How the values were obtained:
[1] = Inhibition of HCV NS3 serine protease; set-up: species or system Hepacivirus hominis
Hepatitis C virus = assay: Antiviral activity against HCV; format: functional, Hepacivirus hominis
[2] = AUC in rat at 3 mg/kg, po; format: ADME, organism-based; set-up: dose 3 mg/kg, route oral; details: plasma

CC(C)(C)NC(=O)N[C@H](C(=O)N1C[C@H]2[C@@H]([C@H]1C(=O)NC(CC1(O)CCC1)C(=O)C(N)=O)C2(C)C)C(C)(C)C (stereo partly drawn)
Ki [1]: 163000 nM

CC(C)(C)NC(=O)N[C@H](C(=O)N1C[C@H]2[C@@H]([C@H]1C(=O)NC(CC1CC(F)(F)C1)C(=O)C(N)=O)C2(C)C)C(C)(C)C (stereo partly drawn)
Ki [1]: 98 nM
EC90 (Hepatitis C virus): 1200 nM
AUC [2]: 1.1 µM·h

CC(C)(C)NC(=O)N[C@H](C(=O)N1C[C@H]2[C@@H]([C@H]1C(=O)NC(CC(F)(F)F)C(=O)C(N)=O)C2(C)C)C(C)(C)C (stereo partly drawn)
Ki [1]: 120 nM

CC(F)(F)CC(NC(=O)[C@@H]1[C@@H]2[C@H](CN1C(=O)[C@@H](NC(=O)NC(C)(C)C)C(C)(C)C)C2(C)C)C(=O)C(N)=O (stereo partly drawn)
Ki [1]: 230 nM

CCC(F)(F)CC(NC(=O)[C@@H]1[C@@H]2[C@H](CN1C(=O)[C@@H](NC(=O)NC(C)(C)C)C(C)(C)C)C2(C)C)C(=O)C(N)=O (stereo partly drawn)
Ki [1]: 360 nM

CC(C)(C)NC(=O)N[C@H](C(=O)N1C[C@H]2[C@@H]([C@H]1C(=O)NC(CCC(F)(F)F)C(=O)C(N)=O)C2(C)C)C(C)(C)C (stereo partly drawn)
Ki [1]: 65 nM
EC90 (Hepatitis C virus): 600 nM
AUC [2]: 0.02 µM·h

CC(C)(C)NC(=O)N[C@H](C(=O)N1C[C@H]2[C@@H]([C@H]1C(=O)NC(C[C@H]1C[C@@H](O)C1)C(=O)C(N)=O)C2(C)C)C(C)(C)C (stereo partly drawn)
Ki [1]: 160 nM

CC(C)(C)NC(=O)N[C@H](C(=O)N1C[C@H]2[C@@H]([C@H]1C(=O)NC(CCCC(F)(F)F)C(=O)C(N)=O)C2(C)C)C(C)(C)C (stereo partly drawn)
Ki [1]: 1300 nM

CC(C)(C)NC(=O)N[C@H](C(=O)N1C[C@H]2[C@@H]([C@H]1C(=O)NC(CC1(F)CCC1)C(=O)C(N)=O)C2(C)C)C(C)(C)C (stereo partly drawn)
Ki [1]: 210 nM
AUC [2]: 0.31 µM·h

CC(C)(C)NC(=O)N[C@H](C(=O)N1C[C@H]2[C@@H]([C@H]1C(=O)NC(CC1CC1(F)F)C(=O)C(N)=O)C2(C)C)C(C)(C)C (stereo partly drawn)
Ki [1]: 50 nM
EC90 (Hepatitis C virus): 1000 nM

CC(C)(C)NC(=O)N[C@H](C(=O)N1C[C@H]2[C@@H]([C@H]1C(=O)NC(CC1CCC1)C(=O)C(N)=O)C2(C)C)C(C)(C)C (stereo partly drawn) [BOCEPREVIR]
Ki [1]: 14 nM
EC90 (Hepatitis C virus): 350 nM
